The source of these data is patent publication US20090137572A1, “2-substituted-4-heteroaryl-pyrimidines useful for the treatment of proliferative disorders” (priority 2004, published 2009).

What all share (assay type): biochemical
The target of experiment [1] is T1, protein kinases (panel of Table 4) (Homo sapiens, UniProt Q96GD4).
T1 construct: other: kinase Aurora B; ATP 100 μM
Briefly: Kinase selectivity profile, kinase inhibition IC50 (Table 4), ATP 100 μM. As to conditions: kinase Aurora B. How it is done:
(§1) For the assays shown in Table 3, the kinases were assayed at the following ATP concentrations: SAPK4, PKBΔph, GSK3b, SAPK3, CK2, MKK1, PIM2, IKKB, ERK8, and PRK2 at 5 μM; JNK, PRAK, ROCK-II, SAPK2b, CDK2, CHK1, MSK1, CSK, P70S6K, PKA, CK1, MAPKAP-K2, SGK, PKCa, PDK1, NEK 7, and MAPKAP-K3 at 20 μM; SAPK2a, LCK, AMPK, MAPK2, DYRK1a, MAPKAP-K1a, NEK-6, NEK2a, PBK, CAMK-1, SRPK-1, JNK3, MNK2, RSK2, MNK1, PKBB, and SmMLCK at 50 μM. For the assays in Table 4 the ATP concentration was 100 μM throughout.

The target of experiment [2] is T2, protein kinases (panel of Table 4) (Homo sapiens, UniProt P50613).
T2 construct: other: kinase CDK7H; ATP 100 μM
T2 sequence (P50613 whole entry): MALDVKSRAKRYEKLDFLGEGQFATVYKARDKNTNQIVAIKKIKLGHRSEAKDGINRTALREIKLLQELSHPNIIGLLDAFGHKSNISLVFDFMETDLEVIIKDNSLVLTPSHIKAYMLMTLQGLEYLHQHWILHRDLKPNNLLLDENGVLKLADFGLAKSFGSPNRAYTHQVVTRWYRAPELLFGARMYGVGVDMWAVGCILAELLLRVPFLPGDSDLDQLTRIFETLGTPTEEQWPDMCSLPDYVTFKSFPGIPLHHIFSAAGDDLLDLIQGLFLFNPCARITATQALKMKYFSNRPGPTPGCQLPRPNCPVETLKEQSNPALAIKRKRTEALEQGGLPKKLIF
The description is as above. The note with it: kinase CDK7H. How it is done: as §1

Experiment [3] deals with T3, protein kinases (panel of Table 4) (Homo sapiens, UniProt Q00534).
T3 construct: other: kinase CDK6D3; ATP 100 μM
T3 sequence (Q00534 whole entry): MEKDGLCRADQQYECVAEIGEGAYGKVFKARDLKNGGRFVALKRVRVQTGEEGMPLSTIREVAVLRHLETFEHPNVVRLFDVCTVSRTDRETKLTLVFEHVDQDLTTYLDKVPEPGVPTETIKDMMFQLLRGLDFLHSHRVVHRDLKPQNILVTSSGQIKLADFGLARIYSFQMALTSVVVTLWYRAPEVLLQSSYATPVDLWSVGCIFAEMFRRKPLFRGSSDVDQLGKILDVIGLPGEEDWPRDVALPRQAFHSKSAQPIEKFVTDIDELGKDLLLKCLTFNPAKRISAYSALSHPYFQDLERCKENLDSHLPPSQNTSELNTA
Described as above. The note with it: kinase CDK6D3. Here is the method:
as §1

Another experiment has as its target CDK7/cyclin H (Homo sapiens, UniProt P50613). Briefly: CDK 7 assay (CTD peptide substrate). As to conditions: read-out: Kinase Inhibition pIC50 CDK7-cyclin H (converted). An outline of the steps: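 Recombinant human kinase/cyclin complex (0.5-2 μg) with biotinylated CTD heptapeptide-repeat substrate and test compound, 45 min at 30° C in MOPS pH 7.2 buffer with 15 mM MgCl2 and 100 μM ATP traced with [γ-32P]ATP. Avidin added, P81 filter capture, phosphoric acid washes, scintillation counting of 32P incorporation.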

A further experiment addresses T4, Aurora A kinase (Homo sapiens, UniProt O14965).
T4 construct: purchased
T4 sequence (O14965 1-403): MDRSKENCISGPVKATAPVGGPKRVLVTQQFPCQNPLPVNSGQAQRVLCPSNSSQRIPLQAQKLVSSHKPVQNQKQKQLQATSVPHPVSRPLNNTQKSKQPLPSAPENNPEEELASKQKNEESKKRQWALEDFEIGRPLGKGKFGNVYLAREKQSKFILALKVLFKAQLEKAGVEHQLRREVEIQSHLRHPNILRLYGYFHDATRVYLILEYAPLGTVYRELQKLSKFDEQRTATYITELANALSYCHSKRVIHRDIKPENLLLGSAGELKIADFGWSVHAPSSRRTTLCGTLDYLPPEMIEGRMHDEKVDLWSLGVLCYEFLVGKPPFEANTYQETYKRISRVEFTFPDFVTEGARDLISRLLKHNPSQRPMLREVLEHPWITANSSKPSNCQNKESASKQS
Briefly: Aurora-A (human) kinase assay (Kemptide substrate). The note with it: pIC50 is -log(IC50, M); 15 μM ATP; read-out: Kinase Inhibition pIC50 Aurora A kinase (converted). In outline: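 Radiometric filter-binding assay: commercial aurora-A kinase (5-10 ng) with 200 μM Kemptide in MOPS/EDTA pH 7.0, started with 10 mM Mg acetate and 15 μM ATP plus [γ-33P]-ATP. Incubated 40 min at room temperature, stopped with phosphoric acid, incorporated 33P counted by scintillation.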

CDK7/cyclin H, sequence (P50613 whole entry): as the sequence (P50613 whole entry) above
CDK7/cyclin H, sequence (P51946 whole entry partner): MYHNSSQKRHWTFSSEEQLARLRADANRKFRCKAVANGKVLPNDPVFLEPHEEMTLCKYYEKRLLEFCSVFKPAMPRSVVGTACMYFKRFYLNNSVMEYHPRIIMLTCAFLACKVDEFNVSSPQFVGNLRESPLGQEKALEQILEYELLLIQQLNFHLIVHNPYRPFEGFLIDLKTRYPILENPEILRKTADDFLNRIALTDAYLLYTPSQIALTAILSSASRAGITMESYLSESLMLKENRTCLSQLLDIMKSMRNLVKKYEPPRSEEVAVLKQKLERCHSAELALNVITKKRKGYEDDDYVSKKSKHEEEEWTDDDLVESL
T1 sequence (Q96GD4 whole entry): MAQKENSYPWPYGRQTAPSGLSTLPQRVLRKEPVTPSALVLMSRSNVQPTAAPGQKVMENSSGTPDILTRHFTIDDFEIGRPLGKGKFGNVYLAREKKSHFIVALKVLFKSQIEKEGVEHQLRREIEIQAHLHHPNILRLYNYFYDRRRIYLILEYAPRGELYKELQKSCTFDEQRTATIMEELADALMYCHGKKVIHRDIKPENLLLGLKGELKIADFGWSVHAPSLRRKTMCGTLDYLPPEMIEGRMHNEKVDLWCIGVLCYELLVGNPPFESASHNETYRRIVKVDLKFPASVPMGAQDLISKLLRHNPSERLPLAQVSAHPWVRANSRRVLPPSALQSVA

On to `CNc1nc(C)c(-c2ccnc(Nc3cccc(S(N)(=O)=O)c3)n2)s1` [Compound 19, 3-[4-(4-Methyl-2-methylamino-thiazol-5-yl)-pyrimidin-2-ylamino]-benzenesulfonamide], for which the IC50 in experiment [1] was 20 nM; in experiment [2], 54 nM; in experiment [3] it was 39 nM; on CDK7/cyclin H, 50.1 nM; at Aurora A kinase, 39.8 nM.
With `Cc1ccc(Nc2nccc(-c3sc(N)nc3C)n2)cc1S(=O)(=O)N1CCOCC1` [Compound 38, [4-(2-Amino-4-methyl-thiazol-5-yl)-pyrimidin-2-yl]-[4-methyl-3-(morpholine-4-sulfonyl)-phenyl]-amine], the IC50 was 140 nM in experiment [1]; 650 nM in experiment [2]; 4800 nM in experiment [3]; 631 nM on CDK7/cyclin H; 501 nM at Aurora A kinase.
With `CNc1nc(C)c(-c2ccnc(Nc3ccc(C)c(S(=O)(=O)N4CCOCC4)c3)n2)s1` [Compound 37, [4-(4-Methyl-2-methylamino-thiazol-5-yl)-pyrimidin-2-yl]-[4-methyl-3-(morpholine-4-sulfonyl)-phenyl]-amine], the IC50 is 240 nM in experiment [1]; 5900 nM in experiment [2]; more than 10000 nM in experiment [3]; 3980 nM at CDK7/cyclin H; 1000 nM on Aurora A kinase.
With `COCCNS(=O)(=O)c1cccc(Nc2nccc(-c3sc(N)nc3C)n2)c1` [Compound 55, 3-[4-(2-Amino-4-methyl-thiazol-5-yl)-pyrimidin-2-ylamino]-N-(2-methoxy-ethyl)-benzenesulfonamide], the IC50 in experiment [1] was 110 nM; in experiment [2], 620 nM; in experiment [3] it was 2100 nM; at CDK7/cyclin H, 631 nM; at Aurora A kinase, 158 nM.
Consider `Cc1nc(CS(=O)(=O)c2cccs2)sc1-c1ccnc(Nc2ccc(N3CCOCC3)cc2)n1` [Compound 138, {4-[4-Methyl-2-(thiophene-2-sulfonylmethyl)-thiazol-5-yl]-pyrimidin-2-yl}-(4-morpholin-4-yl-phenyl)-amine], for which the IC50 on CDK7/cyclin H is 3160 nM; on Aurora A kinase it was 50.1 nM.
For `CCNc1nc(C)c(-c2ccnc(Nc3ccc(N4CCNCC4)cc3)n2)s1` [Compound 59, [4-(2-Ethylamino-4-methyl-thiazol-5-yl)-pyrimidin-2-yl]-(4-piperazin-1-yl-phenyl)-amine], the IC50 in experiment [1] was 16 nM; in experiment [2], 160 nM; in experiment [3], 29 nM; on CDK7/cyclin H it was 126 nM; at Aurora A kinase, 79.4 nM.
On the same counts, the results for `CNc1nc(C)c(-c2ccnc(Nc3cccc(S(C)(=O)=O)c3)n2)s1` [Compound 27, (3-Methanesulfonyl-phenyl)-[4-(4-methyl-2-methylamino-thiazol-5-yl)-pyrimidin-2-yl]-amine] are 260 nM, 200 nM, 330 nM, 200 nM and 316 nM.
